Laboratory results taken from patent US5753658A, “Quinolonecarboxylic acid derivatives” (Senju Pharmaceutical Co., Ltd., priority 1993, dated 1998).
≈ marks a conversion by molar mass, not a printed value.

Assays:
S. aureus IFO 13276 = assay: Antibacterial test (minimum inhibitory concentration), method designated by Japan Society of Chemotherapy; type: cell-based, Staphylococcus aureus; conditions: for MIC: Staphylococcus aureus, IFO13276, S. aureus IFO 13276, Gram's stain +, 10^6 cells/ml
Description: (§1) Antibacterial test was carried out according to the method designated by Japan Society of Chemotherapy in Chemotherapy, 29 (1): 76 (1981), the content of which is herein incorporated by reference. Each of the compounds obtained in Examples 2, 4 and 7 is tested. As a control drug, 1-ethyl-6,8-difluoro-1,4-dihydro-4-oxo-7-(1-piperazinyl)-3-quinolinecarboxylic acid was used, which is represented by formula IV when R1 is hydrogen, R3 is ethyl, R4 and R5 are hydrogen, and Z is piperazinyl.
(§2) The results are shown in Table 1 in terms of minimum inhibitory concentration (MIC).

P. aeruginosa IFO 13275 = assay: as above; type: cell-based; conditions: Pseudomonas aeruginosa, IFO13275; P. aeruginosa IFO 13275, Gram's stain -, 10^6 cells/ml
Description: as §1, §2

MIC (S. aureus IFO 13276) [µg/mL] | MIC (P. aeruginosa IFO 13275) [µg/mL] | SMILES | antibacterial activity compared with the control drug (in words) (S. aureus IFO 13276; against S. aureus, versus control drug)
0.2 (≈ 0.406 µM) | < 0.025 | CCn1cc(C(=O)O)c(=O)c2cc(F)c(N3CCN(S(=O)(=O)c4ccc(N)cc4)CC3)c(F)c21 [Example 2, 1-Ethyl-6,8-difluoro-1,4-dihydro-4-oxo-7-[4-(4-aminobenzenesulfonyl)-1-piperazinyl]-3-quinolinecarboxylic acid] | more potent antibacterial activity than the control drug
0.78 (≈ 1.59 µM) | < 0.025 | CCn1cc(C(=O)O)c(=O)c2cc(F)c(N3CCN(S(=O)(=O)c4ccc(C)cc4)CC3)c(F)c21 [Example 4, 1-Ethyl-6,8-difluoro-1,4-dihydro-4-oxo-7-[4-(4-methylbenzenesulfonyl)-1-piperazinyl]-3-quinolinecarboxylic acid] | 
0.78 (≈ 1.57 µM) | < 0.025 | CCn1cc(C(=O)O)c(=O)c2cc(F)c(N3CCN(S(=O)(=O)c4ccc(F)cc4)CC3)c(F)c21 [Example 7, 1-Ethyl-6,8-difluoro-1,4-dihydro-4-oxo-7-[4-(4-fluorobenzenesulfonyl)-1-piperazinyl]-3-quinolinecarboxylic acid] | 

SMILES | MIC (S. aureus IFO 13276) [µg/mL] | MIC (P. aeruginosa IFO 13275) [µg/mL] | antibacterial activity compared with the control drug (in words) (S. aureus IFO 13276; against S. aureus, versus control drug)
CCn1cc(C(=O)O)c(=O)c2cc(F)c(N3CCNCC3)c(F)c21 [Control drug, 1-ethyl-6,8-difluoro-1,4-dihydro-4-oxo-7-(1-piperazinyl)-3-quinolinecarboxylic acid, reference compound] | 0.39 (≈ 1.16 µM) | < 0.025 | 
